# Values quoted from earlier work, collected in US20050266073A1, “Fast disintegrating granules containing bromhexin/bromhexinhydrochloride, process for their preparation, and their use in veterinary medicine” (Boehringer Ingelheim Vetmedica GmbH, priority 2004, published 2005).
# Legend:
# [1] = not given; remark: listed apart in the source
Structure (SMILES),solubility in water [g/250 ml],solubility in water (in words),"solubility in ethanol, methanol and methylene chloride (in words) [1]"
"CN(Cc1cc(Br)cc(Br)c1N)C1CCCCC1 [Bromhexin, N-cyclohexyl-N-methyl-(2-amino-3,5-dibrombenzyl)amine]",1,soluble with difficulty,
CN(Cc1cc(Br)cc(Br)c1N)C1CCCCC1.Cl [Bromhexinhydrochloride],,,dissolves with difficulty
